“Also recorded” adds a separate entry of the source.

This is an account of results in paper PMC7114339 (Antiviral Research, 2020).

For series [1] the following is noted: 2014, cited from earlier work.
A further series relates to tumor growth. Conditions: xenograft mouse model ref Wolfe et al., 2014; cited from earlier work.
Series [2] concerns persistently HEV-infected A549 cells. Nature of the series: Cell viability of persistently HEV-infected A549 cells. The note with it: 2 nM, 72 h.
For series [3], the system named is 5′-terminal hairpin of VP35 (VP35-HP only). The format is cell-based, EBOV.
Another series relates to VP35-HP+(AG)5. The class given is cell-based, EBOV.
For another series, the system named is 5′-UTR of MERS-CoV. The class given is cell-based.
The subject of another series is ZIKV. The series is described as follows: Antiviral activity in ZIKV-infected A549 cells. The format is cell-based. Conditions: ZIKV RNA, MOI 0.1, 24 hpi.
The test system of a further series is (AG)15 construct. The series is described as follows: cells. The class given is cell-based. The note with it: read-out: inhibited translation.
A further series has as its system HEVgt3c-Purine 5′-UTR. The format is cell-based, HEV.
The next series relates to 5′-UTR of HCoV-229E. The format is cell-based.
For another series, the system named is HEV. The class given is cell-based.
In series [4] the test system is HCoV-229E. Nature of the series: microbe, parasite or virus in culture. Conditions: Human coronavirus 229E, MRC5. The class given is cell-based.
A short description of series [5]: Cell toxicity in murine hepatocytes. The note with it: mouse, murine hepatocytes (mock infected).
A further series deals with 5′-UTR of EBOV VP35. The format is cell-based.
The next series concerns 5′-UTR of HEV (HEVgt3c). The format is cell-based. Conditions: 10 nM.
The next series relates to A549 cells. Conditions: human.
The next series in a line: in vitro. Conditions: human.
Another series concerns 5′-UTR of EBOV VP30 mRNA. The format is cell-based.
The subject of a further series is CCHFV. The series is described as follows: cells. The class given is cell-based.
A further series concerns LASV. The series is described as follows: cells. The format is cell-based.
For series [6], the system named is HEVgt3c-G4C and HEVgt3c-G4CC6A. The class given is cell-based, HEV.
For another series, the system named is (AC)15 sequence. The class given is cell-based.
In series [7] the test system is HCoV-229E. The class given is cell-based.

With CR-31-B, in [1] (mice ref Wolfe et al.), the “body weight or the number of blood cells” value is “did not change” and the “toxicity in the gastrointestinal tract” value is “no toxicity could be observed”. Moreover, the “serum levels of aminotransferases (ALT and AST), albumin, total bilirubin, creatinine” value in [1] (two weeks after cessation of treatment ref Wolfe et al.) is “not significantly changed”. Moreover, the tumor growth entry in the series on tumor growth is “reduced tumor growth efficiently”. In the series on MRC-5 cells, the cytotoxic effects result is “no major cytotoxic effects”. The cytotoxicity result in series [2] is reported as “not cytotoxic”.
Turning to `COC(=O)[C@H]1[C@@H](O)[C@@]2(O)c3c(OC)cc(O[C@@H]4O[C@@H]([C@H](O)CO)CO[C@H]4OC)cc3O[C@@]2(c2ccc(OC)cc2)[C@@H]1c1ccccc1` [Silvestrol], the “effect on reporter activity” value was “sufficient to mediate translation inhibition” in series [3] and “slightly increased translation inhibition” in the series with VP35-HP+(AG)5. Besides, the “sensitivity to translation inhibition” value is recorded as “similarly sensitive” with 5′-UTR of MERS-CoV, “similarly sensitive” in the series with 5′-UTR of HCoV-229E, “sensitive” in the series with 5′-UTR of EBOV VP35 and “similarly sensitive” in the series on 5′-UTR of EBOV VP30 mRNA. In addition, the half-maximal effective concentration (EC50) was found to be 1.08 nM with ZIKV; 3 nM in the series with HCoV-229E [4]; 28.5 nM with CCHFV (Mus musculus, Hepatocyte); 50.7 nM with LASV (Mus musculus, Hepatocyte). Further, in the series on (AG)15 construct, the inhibition at 0.01 µM was ~55%. Moreover, in the series with HEVgt3c-Purine 5′-UTR, the sensitivity to treatment entry is given as “sensitive”. The “antiviral effect against HEV (extracellular viral RNA levels)” value with HEV is listed as “confirmed the antiviral activity; also recorded: reduce the levels of extracellular HEV RNA”. The CC50 was > 5 µM in [5], 9.42 nM in the series on A549 cells and > 10 µM in the series “in vitro”. Also, the tumor growth result in the series on tumor growth is listed as “reduced tumor growth efficiently”. Moreover, in the series on 5′-UTR of HEV (HEVgt3c), the luciferase activity entry is listed as “reduced luciferase activity”. Besides, in the series with CCHFV, the “virus titer drop, CCHFV” value came to 3 log. Moreover, the “virus titer drop, LASV” value in the series with LASV is listed as ~ 4 log. Further, in series [6], the inhibitory effect result was “gradual loss of the inhibitory effect”. For the same compound, the “induction of luciferase activity” value in the series with (AC)15 sequence turned out to be 1.5 fold. Moreover, in series [2], the cytotoxicity result was “some cytotoxicity”. Further, the “virus titer in the supernatant reduced by” value in the series on HCoV-229E [7] was “similar”. Moreover, the infectious virus production entry in the series with HCoV-229E [7] (100 nM) was “undetectable levels”.

As a reminder, the EC50 is the concentration at which the effect is half-maximal.
